The values that follow come from patent publication US20050043341A1, “3-'Hydroxy-(-4-trifluoromethylphenyl)-methyl-7-spirocyclobutyl-5,6,7 8-tetrahydroquinolin-5-ol derivatives and the use of the same as cholesterol ester transfer protein (cetp) inhibitors” (priority 2001, published 2005).

For orientation: IC50 means the concentration that inhibits the measured activity by half. High values mean weaker potency, low ones greater potency.

The target in one experiment is T1, CETP (Homo sapiens, UniProt P11597).
T1 construct: CETP is obtained in partially purified form from human plasma; from tissue; host or cells: human plasma
T1 sequence (P11597 18-493): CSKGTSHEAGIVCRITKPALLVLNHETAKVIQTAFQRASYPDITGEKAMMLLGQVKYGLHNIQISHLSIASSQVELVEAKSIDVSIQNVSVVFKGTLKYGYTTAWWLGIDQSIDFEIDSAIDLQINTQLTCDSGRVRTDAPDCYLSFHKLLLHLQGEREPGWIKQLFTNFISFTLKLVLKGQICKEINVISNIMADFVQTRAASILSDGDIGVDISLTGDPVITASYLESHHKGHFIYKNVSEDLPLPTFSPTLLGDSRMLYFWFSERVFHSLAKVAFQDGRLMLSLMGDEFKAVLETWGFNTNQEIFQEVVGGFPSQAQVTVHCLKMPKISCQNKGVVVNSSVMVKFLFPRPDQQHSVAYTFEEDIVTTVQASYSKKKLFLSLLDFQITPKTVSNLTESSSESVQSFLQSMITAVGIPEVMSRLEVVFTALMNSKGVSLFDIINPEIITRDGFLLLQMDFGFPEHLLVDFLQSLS
Briefly: CETP-SPA test. In kind it is biochemical. The note with it: 3H-cholesterol ester transfer from HDL to biotin-LDL, 37° C., 18 h. On the procedure:
CETP is obtained in partially purified form from human plasma by differential centrifugation and column chromatography and used for the test. To this end, human plasma is adjusted to a density of 1.21 g per ml using NaBr and centrifuged at 4° C. at 50000 rpm for 18 h. The bottom fraction (d>1.21 g/ml) is applied to a Sephadex® Phenyl-Sepharose 4B (Pharmacia) column, washed with 0.15 M NaCl/0.001 M tris HCl pH 7.4 and then eluted with dist. water. Die CETP-active fractions are pooled, dialysed against 50 mM Na acetate pH 4.5 and applied to a CM-Sepharose® (Pharmacia) column. The mixture is then eluted using a linear gradient (0-1 M NaCl). The pooled CETP fractions are dialysed against 10 mM TrisHCl pH 7.4 and then further purified by chromatography on a Mono Q® column (Pharmacia).
50 ml of fresh human EDTA plasma are adjusted to a density of 1.12 using NaBr and centrifuged at 4° C. in a Ty 65 rotor at 50000 rpm for 18 h. The upper phase is used for the obtainment of cold LDL. The lower phase is dialysed against 3×41 of PDB buffer (10 mM tris/HCl pH 7.4, […], 1 mM EDTA, 0.02% NaN3). Per 10 ml of retentate volume, 20 μl of 3H-cholesterol (Dupont NET-725; 1 μC/μl dissolved in ethanol!) is then added and the mixture is incubated at 37° C. under N2 for 72 h.
The batch is then adjusted to the density 1.21 using NaBr and centrifuged at 20° C. in a Ty 65 rotor at 50000 rpm for 18 h. The upper phase is recovered and the lipoprotein fractions are purified by gradient centrifugation. To this end, the isolated, labelled lipoprotein fraction is adjusted to a density of 1.26 using NaBr. 4 ml each of this solution are covered in centrifuged tubes (SW 40 rotor) with a layer of 4 ml of a solution of density 1.21 and 4.5 ml of a solution of 1.063 (density solutions of PDB buffer and NaBr) and then centrifuged for 24 h at 38000 rpm and 20° C. in the SW 40 rotor. The intermediate layer lying between the density 1.063 and 1.21, containing the labelled HDL, is dialysed against 3×100 volumes of PDB buffer at 4° C.
The retentate contains radiolabelled ^3H-CE-HDL, which, adjusted to about 5×10^6 cmp per ml, is used for the test.
For testing of the CETP activity, the transfer of ^3H-cholesterol ester from human HD lipoproteins to biotinylated LD lipoproteins is measured.
The reaction is ended by addition of streptavidin-SPA®beads (Amersham) and the transferred radioactivity is determined directly in a liquid scintillation counter.
In the test batch, 10 μl of HDL-^3H-cholesterol ester (˜50000 cpm) are incubated at 37° C. for 18 h with 10 μl of biotin-LDL (Amersham) in 50 mM Hepes/0.15 M NaCl/0.1% bovine serum albumin/0.05% NaN3 pH 7.4 containing 10 μl of CETP (1 mg/ml) and 3 μl of solution of the substance to be tested (dissolved in 10% DMSO/1% RSA). 200 μl of the SPA-streptavidin bead solution (TRKQ 7005) are then added, incubated further with shaking for 1 h and then measured in a scintillation counter.
Corresponding incubations with 10 μl of buffer, 10 μl of CETP at 4° C. and 10 μl of CETP at 37° C. serve as controls.
The activity transferred in the control batches with CETP at 37° C. is rated as 100% transfer. The substance concentration at which this transfer is reduced to half is specified as the IC50 value.

In the next experiment the test system is Syrian golden hamsters. Briefly: In vivo activity in Syrian golden hamsters (HDL cholesterol). The conditions noted are these: perorally. Here is the method:
In experiments for the determination of the oral action on lipoproteins and triglycerides, test substance dissolved in DMSO and 0.5% suspended in Tylose are administered perorally by means of a stomach tube to Syrian golden hamsters bred in-house. For the determination of the CETP activity, before the start of the experiment blood is taken by retro-orbital puncture (about 250 μl). The test substances are then administered perorally by means of a stomach tube. The control animals receive identical volumes of solvent without test substance. The feed is then withdrawn from the animals and blood is taken at various times—up to 24 hours after substance administration—by puncture of the retroorbital venous plexus.
Clotting is terminated by incubation at 4° C. overnight, then centrifugation is carried out for 10 minutes at 6000×g. The content of cholesterol and triglycerides in the serum thus obtained is determined with the aid of modified commercially obtainable enzymatic tests (Ecoline 25 Cholesterol 1.14830.0001 Merck Diagnostica, Ecoline 25 Triglycerides 1.14856.0001 Merck Diagnostica). Serum is suitably diluted using physiological saline solution.
10 μl of serum dilution are treated with 200 μl of Ecoline 25 reagent in 96-hole plates and incubated for 10 minutes at room temperature. The optical density is then determined at a wavelength of 490 nm using an automatic plate reader. The triglyceride or cholesterol concentration contained in the samples is determined with the aid of a standard curve measured in parallel.
The determination of the content of HDL cholesterol is carried out after precipitation of the ApoB-containing lipoproteins (Sigma 352-4 HDL cholesterol reagent) according to the manufacturer's instructions.

Another experiment has as its system transgenic hCETP mice. Briefly: In vivo activity in transgenic hCETP mice (HDL). The note with it: stomach tube. Here is the method: In experiments for the determination of the oral action on lipoproteins and triglycerides, test substance is administered to transgenic mice using a stomach tube (Dinchuck, Hart, Gonzalez, Karmann, Schmidt, Wirak; BBA (1995), 1295, 301). Before the start of the experiment, blood is taken from the mice retroorbitally in order to determine cholesterol and triglycerides in the serum. The serum is obtained as described above for hamsters by incubation at 4° C. overnight and subsequent centrifugation at 6000×g. […] The change in the parameters measured is expressed as the percentage change compared with the starting value.

Regarding `CC(C)c1nc2c(c(-c3ccccc3)c1[C@@H](O)c1ccc(C(F)(F)F)cc1)[C@@H](O)CC1(CCC1)C2` [Example 53, (5S)-2-Isopropyl-4-phenyl-3-[(S)-hydroxy-(4-trifluoromethylphenyl)-methyl]-7-spirocyclobutyl-5,6,7,8-tetrahydroquinolin-5-ol], at CETP, the IC50 came out at 30 nM. In addition, in the experiment with Syrian golden hamsters, the “% HDL increase after 24 h (Dose: 2 × 10 mg/kg)” value was found to be 19%.
Turning to `CC(C)c1nc2c(c(-c3cccs3)c1[C@@H](O)c1ccc(C(F)(F)F)cc1)[C@@H](O)CC1(CCC1)C2` [Example 61, (5S)-2-Isopropyl-4-(2-thienyl)-3-[(S)-hydroxy-(4-trifluoromethylphenyl)-methyl]-7-spirocyclobutyl-5,6,7,8-tetrahydroquinolin-5-ol], the IC50 against CETP worked out at 40 nM.
`CC(C)c1nc2c(c(-c3ccc(F)cc3)c1[C@@H](O)c1ccc(C(F)(F)F)cc1)[C@@H](O)CC1(CCC1)C2` [Example 51, (5S)-2-Isopropyl-4-(4-fluorophenyl)-3-[(S)-hydroxy-(4-trifluoromethylphenyl)-methyl]-7-spirocyclobutyl-5,6,7,8-tetrahydroquinolin-5-ol] showed an IC50 at CETP of 15 nM. For the same compound, in the experiment on Syrian golden hamsters, the “% HDL increase after 24 h (Dose: 2 × 10 mg/kg)” value came to 17%. Moreover, the “% HDL increase after 4 d (Dose: 4 × 10 mg/kg)” value with transgenic hCETP mice is given as 57%.
